Laboratory results taken from patent US5195966A, “Treatment of mastitis and applicator therefor” (Diversey Limited, priority 1990, dated 1993).

Legend:
[1] = cited from earlier work
mastitis = test: Clinical efficacy in mastitis, overall and number of infusions to effect a clinical cure; type: in vivo, dairy cattle
Source text: (§1) Efficacy studies used half herds on a positive control and half herds on the experimental treatment. The protocol agreed was that herds were randomly split into two halves by number. Odd numbered cows received experimental treatment and even numbered cows received the positive control. Any animal sufficiently badly affected (i.e. systematically affected) should be the subject of a visit from a veterinary surgeon and was not included in the trial on either side.
(§2) Milk samples of each infected quarter were sent to the MMB Laboratories for cell count and bacterial identification as follows:.
(§3) A clinical cure is defined as the udder returning to normal function.
(§4) 40 ml of 1.25% w/v solution of sodium oxychlorosene infused 6 times at 6 milkings.
(§5) 1 full tube of 100 mg procaine penicillin/100 mg dihydro-streptomycin sulphate infused 6 times at 6 milkings. Five measurements can be made from the figures available:
(§6) (The variations in n, the number of determinations from which the mean cell count is calculated, are due to various factors, such as samples leaking in transit, faster decomposition of samples in hot weather, especially where no inhibitor substances are present (i.e. sodium oxychlorosene). Mean number of infusions to effect a clinical cure where a clinical cure is affected after up to 6 infusions.

rats = test: LD50 of Clorpactin WCS-90 in a milk vehicle by the oral route; type: in vivo; conditions: sterilized, γ-irradiated (2.5 megarads)
St. faecalis = test: Minimum inhibitory concentration against St. faecalis; type: cell-based; conditions: St. faecalis (intestinal flora)
[2] = system: Staph. coagulase positive; test: Clinical cure of mastitis, Staph. coagulase positive; type: in vivo, dairy cattle; conditions: 40 ml 1.25% w/v, 6 infusions at successive milkings
Source text: as §1, §2, §3, §4, §5
(§7) Odd numbered animals. Sodium oxychlorosene. 40 ml 1.25% w/v. 6 times at successive milkings.
(§8) Procaine penicillin/Dihydrostreptomycin sulphate. 6 times at 6 milkings.

[3] = system: starters Streptococcus thermophilus and Lactobacillus bulgarius; test: Inhibitory effect on yoghurt starter cultures (lactic acid by titratable acidity); type: cell-based
Protocol: The inhibitory effect of "Clorpactin" on starter cultures was also investigated: Raw whole milk was pasteurized and spiked with various concentrations of freshly prepared "Clorpactin". These samples were inoculated with the starters Streptococcus thermophilus and Lactobacillus bulgarius contained in natural yoghurt, incubated at 37°/5 hours and the percent lactic acid determined by titratable acidity (BSI, 1741:1963).

Str. dysgalactiae = test: Clinical cure of mastitis, Str. dysgalactiae; type: in vivo, dairy cattle; conditions: 40 ml 1.25% w/v, 6 infusions at successive milkings
Source text: as §1, §2, §3, §4, §5, §7, §8

E. coli [4] = test: Minimum inhibitory concentration against E. coli; type: cell-based; conditions: E. coli (intestinal flora)
[5] = bovine, in vivo
Protocol: An experimental study was conducted to determine if any absorption occurs between quarters during a course of treatment with "Clorpactin WCS-90".
The method used was to infuse two of the quarters of a healthy cow with a double normal strength course of treatment and to monitor each of the four quarters for "Clorpactin" residues, both during and after the trial. This with the assumption that if the material were being transferred between quarters by any mechanism it would be detected in the untreated quarters.
Analysis of the milk samples from each quarter was by ion-pair reverse-phase chromatography.
Calculation of the "Clorpactin" residues was by peak area with the milk used for the standards being prepared from milk obtained several days before treatment.
Two of the quarters were each infused with a double normal dose of "Clorpactin WCS-90" (2×0.5 g in 40 mls of physiological saline) on six consecutive occasions following 6 milkings.
The milk from all four quarters was monitored for residues both during and after the trial to determine if any transfer to untreated quarters had occurred.
The first infusion occurred after Milking No. 1, with the consequence that Milking 1 represents the background.

[6] = system: somatic cell counts in milk; test: Mean somatic cell counts in milk during and after completed treatments; type: in vivo, dairy cattle
Source text: as §2
Somatic cell counts in milk from individual quarters is an indication of the state of health of that quarter. The higher the cell count, the greater is the degree of infection or the irritant effect in the udder.
The mean cell counts for all experimental milk samples submitted to the MMB are shown below. It is not always possible to obtain a cell count if the milk is obviously mastitic or if the sample deteriorates in transit. One problem with sodium oxychlorosene samples is that, due to lack of inhibitory effects, samples in transit may deteriorate quite rapidly. Samples containing antibiotic inhibitors are generally better protected from microbiological deterioration in transit. Some samples, when specifically needed for cell counts and not for causative organism assay, have been protected by the addition of formalin. This was carried out, for instance, when the irritancy studies were carried out.
as §6

E. coli [7] = test: Clinical cure of mastitis, E. coli; type: in vivo, dairy cattle; conditions: of 4 cases; 40 ml 1.25% w/v, 6 infusions at successive milkings
Source text: as §1, §2, §3, §4, §5, §7, §8

Str. uberis = test: Clinical cure of mastitis, Str. uberis; type: in vivo, dairy cattle; conditions: 40 ml 1.25% w/v, 6 infusions at successive milkings
Source text: as §1, §2, §3, §4, §5, §7, §8

dairy cattle = conditions: bovine, in vivo
Str. agalactiae = test: Clinical cure of mastitis, Str. agalactiae; type: in vivo, dairy cattle; conditions: 40 ml 1.25% w/v, 6 infusions at successive milkings
Source text: as §1, §2, §3, §4, §5, §7, §8

[8] = in vivo
Source text: The completed work, which takes the form of a series of individual studies, monitors the level of residues in milk from cows that were subjected to six infusions of a single normal strength "Clorpactin" dose (0.5 grams in 40 mls of physiological saline), both during infusion and for a series of milkings after the treatment was complete.
Analysis of the milk samples from each cow was by ion-pair reverse-phase chromatography. Calculation of the "Clorpactin" residues was, in the case of Study 01, by the peak height method, as the milk used for the standards was obtained from a different source from the cows under test (consequent detection limit 7 ppm). In studies, 02, 03 and 04 as the standards were made in milk obtained from the cow under test a few days prior to treatment, the peak area method was used (detection limit 1 ppm). […] Treatments:
Two mid-lactation cows (Fresian) were selected for the trial, with each being subjected to one course of treatment with the ""Clorpactin WCS-90". Treatments comprised six infusions, following six successive milkings, of "Clorpactin" at a single normal strength dose (0.5 gms per 40 mls of physiological saline)
Two healthy mid-lactation cows (Fresian) were selected for this trial, with again each cow being subjected to a single course of treatment with "Clorpactin WCS-90" Study 02 differed from Study 01 in that a sample of the milk from the quarters under test was removed from the cow a few days prior to treatment, to enable accurate standards to be prepared.
Three healthy mid-lactation cows (Fresian) were selected for the trial, with each being subjected to one course of treatment with the "Clorpactin WCS-90", to each of the four quarters of the animals.
The milk from all four quarters was monitored for residues during and after treatment, with the standards being made up in milk obtained from the quarters a few days before the trial.
Two mastitic cows, used in the efficacy study, were monitored for residues in the milk from a point where the milk appeared to be normal. It was not possible to evaluate the severely mastitic milk as no standards may be prepared to evaluate milk that is constantly changing in composition. The standards used in this case were made in milk obtained some 4 days after the last sample was taken.
Means cited at the foot of the Table are calculated taking the <7 ppm and <1 ppm results as 7 and 1, respectively.

## (mon)oxychlorosene
[1]; after dissolving
  hydrolysis in water: hydrolyses rapidly
[1]
  dissolution in water: dissolves slowly in water

## sodium oxychlorosene
mastitis; 1.25% w/v, 95% confidence level
  clinical cure versus the conventional antibiotic: superior to the conventional antibiotic
mastitis; 72 degrees of freedom, t = 3.098
  significance (p) of mean number of infusions, Experimental vs Positive control: < 0.01
mastitis; clinical cure effected after up to 6 infusions, n = 70 (sodium oxychlorosene 1.25% w/v, On1 1.61), n = 30 (antibiotic, On1 1.10)
  Mean number of infusions to effect a clinical cure: 4.11
rats
  LD50: > 5000 mg/kg
St. faecalis
  minimum inhibitory concentration: approximately 2000 ppm
[2]; 72 cases
  % Clinical Cures: 90%
[2]; of 72 cases
  Clinical Cures: 65
[3]; Clorpactin-spiked milk up to 0.01% (100 ppm), 37°/5 hours, control also about 0.9%
  percent lactic acid: about 0.9 % lactic acid
[3]; conclusion
  effect on yoghurt starter culture activity: no adverse affect on yoghurt starter culture activity
[3]; levels of up to 0.01% (100 ppm) in pasteurized milk, 37°/5 hours
  effect on lactic acid production: no effect on lactic acid production
Str. dysgalactiae; 10 cases
  % Clinical Cures: 70%
Str. dysgalactiae; of 10 cases
  Clinical Cures: 7
E. coli [4]
  minimum inhibitory concentration: approximately 2000 ppm
[5]
  Clorpactin in the untreated quarters: No evidence of any "Clorpactin" was detected in the untreated quarters
  milking number by which level is clear: ≤ 8
  transference to the untreated quarters: no mechanism of transference
[6]; day 0
  Mean Cell Counts: 6870
[6]; day 1
  Mean Cell Counts: 6092
[6]; day 2
  Mean Cell Counts: 4912
[6]; day 3
  Mean Cell Counts: 4845
[6]; day 4
  Mean Cell Counts: 3468
[6]; day 5
  Mean Cell Counts: 2018
[6]; day 12
  Mean Cell Counts: 1576
[6]; day 19
  Mean Cell Counts: 965
E. coli [7]
  Clinical Cures: 3
Str. uberis; 25 cases
  % Clinical Cures: 76%
Str. uberis; of 25 cases
  Clinical Cures: 19
Dairy cattle
  adverse effects: No adverse effects were found
Str. agalactiae; 51 cases
  % Clinical Cures: 82%
Str. agalactiae; of 51 cases
  Clinical Cures: 41
[8]
  10× mean residue level after withdrawal period: 31 ppm
  levels detected after treatment is complete: quickly drops off to background
  milking by which background has been achieved: ≤ 8
  withdrawal after treatment supported by the data: one milking withdrawal
